By IC50 is commonly meant the midpoint of a concentration-inhibition curve.

The assay deals with primary neuronal cultures from embryonic rat brains. The experiment in a line: Rat oscillation assay (FLIPR, neuronal calcium oscillations). The format is cell-based. The settings on record: Rattus norvegicus. The method, boiled down: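 Cortical neurons from E18 Wistar rat embryos, cultured 8–10 days at high density, loaded with 1 μM Fluo-8 AM; calcium oscillations recorded by FLIPR once per second in Mg-free HBSS with 2 mM CaCl2, 20 mM HEPES, pH 7.4. Two acquisitions ("Acute", 500 sec, compound added at 250 sec; "20 min"), ± Kv7 blocker XE-991.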

Where [1] appears, read: 20 min, AUC of fluorescence measured 20 min after compound addition, read-out: FLIPR: IC50 [nM] 20 min.
[2] abbreviates: Acute phase, ratio of AUC fluorescence before and after compound addition, read-out: FLIPR: IC50 [nM] acute.

Read-outs that look alike come from different tables or passages of the source.

Turning to `O=C(NCc1nccc(OCC(F)(F)F)n1)NC1CC2(CCC2)C1` [Example 112, 1-Spiro[3.3]hept-2-yl-3-[4-(2,2,2-trifluoro-ethoxy)-pyrimidin-2-ylmethyl]-urea], the IC50 runs as follows: under setting [1], 1420 nM; under setting [2], 1100 nM.

Take `O=C(NCc1cc(F)cc(C(F)(F)F)c1)NC1CC2(CCC2)C1` [Example 18, 1-(3-Fluoro-5-trifluoromethyl-benzyl)-3-spiro[3.3]hept-2-yl-urea]: the IC50 is, setting by setting: under setting [1], 65 nM; under setting [2], 109 nM.

As to `CC(NC(=O)NC1CC2(CCC2)C1)c1cccc(OCC(F)(F)F)c1F` (racemic) [Example 98, (±)-1-{1-[2-Fluoro-3-(2,2,2-trifluoro-ethoxy)-phenyl]-ethyl}-3-spiro[3.3]hept-2-yl-urea], the concentration for half-maximal inhibition (IC50) is, setting by setting: under setting [1], 14 nM; under setting [2], 11 nM.

In the case of `Cn1nnc(C(NC(=O)NC2CC3(CCC3)C2)c2cccc(C(F)(F)F)c2)n1` (racemic) [Example 164, (±)-1-[(2-Methyl-2H-tetrazol-5-yl)-(3-trifluoromethyl-phenyl)-methyl]-3-spiro[3.3]hept-2-yl-urea], the IC50 under setting [1] was 619 nM and the half-inhibitory concentration (IC50) under setting [2] was 267 nM.

As for `COCC(c1ccnc(OCC(F)(F)F)c1)N(C)C(=O)NC1CC2(CCC2)C1` (racemic) [Example 50, (±)-1-{2-Methoxy-1-[2-(2,2,2-trifluoro-ethoxy)-pyridin-4-yl]-ethyl}-1-methyl-3-spiro[3.3]hept-2-yl-urea], the 50% inhibitory concentration (IC50) runs as follows: under setting [1], 118 nM; under setting [2], 80 nM.

For `CC(NC(=O)NC1CC2(CC2)C1)c1cccc(OC(F)(F)F)c1` (racemic) [Example 141, (±)-1-Spiro[2.3]hex-5-yl-3-[1-(3-trifluoromethoxy-phenyl)-ethyl]-urea], the IC50 runs as follows: under setting [1], 26 nM; under setting [2], 22 nM.

Take `O=C(NC1CC2(CC2)C1)NC1(c2cccc(OC(F)F)c2)CC1` [Example 136, 1-[1-(3-Difluoromethoxy-phenyl)-cyclopropyl]-3-spiro[2.3]hex-5-yl-urea]: the IC50 runs as follows: under setting [1], 386 nM; under setting [2], 334 nM.

As for `O=C(NCc1cccc(COC(F)(F)F)c1)NC1CC2(CCC2)C1` [Example 43, 1-Spiro[3.3]hept-2-yl-3-(3-trifluoromethoxymethyl-benzyl)-urea], the concentration for half-maximal inhibition (IC50) is 22 nM under setting [1] and 16 nM under setting [2].

As for `O=C(NC1CC2(CCC2)C1)NC(CCO)c1cc(OCC(F)(F)F)ncn1` (racemic) [Example 85, (±)-1-{3-Hydroxy-1-[6-(2,2,2-trifluoro-ethoxy)-pyrimidin-4-yl]-propyl}-3-spiro[3.3]hept-2-yl-urea], the 50% inhibitory concentration (IC50) under setting [1] came out at 146 nM and the IC50 under setting [2] was determined as 157 nM.

For `CC(Oc1cccc(C2(NC(=O)NC3CC4(CC4)C3)CC2)c1)C(F)(F)F` (racemic) [Example 135, (±)-1-Spiro[2.3]hex-5-yl-3-{1-[3-(2,2,2-trifluoro-1-methyl-ethoxy)-phenyl]-cyclopropyl}-urea], the concentration for half-maximal inhibition (IC50) runs as follows: under setting [1], 115 nM; under setting [2], 133 nM.

For the compound `C[C@@H](NC(=O)NC1CC2(CCC2)C1)c1cccc(OC(F)F)c1` (single isomer, unassigned) [Example 174], the 50% inhibitory concentration (IC50) under setting [1] came out at 2490 nM and the half-maximal inhibitory concentration (IC50) under setting [2] turned out to be 2870 nM.

Regarding `O=C(NCc1cccc(C(F)F)c1)NC1CC2(CC2)C1` [Example 158, 1-(3-Difluoromethyl-benzyl)-3-spiro[2.3]hex-5-yl-urea], the IC50 is 414 nM under setting [1] and 390 nM under setting [2].

In the case of `O=C(NCc1cc(C(F)(F)F)ccc1F)NC1CC2(CC2)C1` [Example 151, 1-(2-Fluoro-5-trifluoromethyl-benzyl)-3-spiro[2.3]hex-5-yl-urea], the IC50 is 419 nM under setting [1] and 269 nM under setting [2].

Consider `O=C(NCc1ccnc(OCC(F)(F)F)n1)NC1CC2(CCC2)C1` [Example 70, 1-Spiro[3.3]hept-2-yl-3-[2-(2,2,2-trifluoro-ethoxy)-pyrimidin-4-ylmethyl]-urea], for which the half-inhibitory concentration (IC50) reads like this: under setting [1], 546 nM; under setting [2], 219 nM.

`CC(NC(=O)NC1CC2(CCC2)C1)c1cccc(S(F)(F)(F)(F)F)c1` (racemic) [Example 34, (±)-1-(1-(3-(pentafluoro-λ^6-sulfaneyl)phenyl)ethyl)-3-(spiro[3.3]heptan-2-yl)urea]: the IC50 runs as follows: under setting [1], 8.5 nM; under setting [2], 6.7 nM.

For `COCC1c2cccc(OCC(F)(F)F)c2CCN1C(=O)NC1CC2(CCC2)C1` (racemic) [Example 54, (±)-1-Methoxymethyl-5-(2,2,2-trifluoro-ethoxy)-3,4-dihydro-1H-isoquinoline-2-carboxylic acid spiro[3.3]hept-2-ylamide], the IC50 was 244 nM under setting [1] and 207 nM under setting [2].

As to `COc1c(CNC(=O)NC2CC3(CC3)C2)cccc1C(F)(F)F` [Example 128, 1-(2-Methoxy-3-trifluoromethyl-benzyl)-3-spiro[2.3]hex-5-yl-urea], the IC50 by setting is: under setting [1], 950 nM; under setting [2], 981 nM.

`COc1c(OCC(F)(F)F)cccc1C(C)NC(=O)NC1CC2(CCC2)C1` (racemic) [Example 31, (±)-1-{1-[2-Methoxy-3-(2,2,2-trifluoro-ethoxy)-phenyl]-ethyl}-3-spiro[3.3]hept-2-yl-urea]: the 50% inhibitory concentration (IC50) is 25 nM under setting [1] and 20 nM under setting [2].

Consider `N#CC(NC(=O)NC1CC2(CCC2)C1)c1cccc(C(F)(F)F)c1` (centres unmarked) [Example 55, 1-[Cyano-(3-trifluoromethyl-phenyl)-methyl]-3-spiro[3.3]hept-2-yl-urea], for which the IC50 under setting [1] was found to be 48 nM and the half-maximal inhibitory concentration (IC50) under setting [2] was determined as 67 nM.

In the case of `O=C(NC1CC2(CCC2)C1)NC(CC(F)F)c1cccc(C(F)(F)F)c1` (racemic) [Example 84, (±)-1-[3,3-Difluoro-1-(3-trifluoromethyl-phenyl)-propyl]-3-spiro[3.3]hept-2-yl-urea], the concentration for half-maximal inhibition (IC50) was 4.2 nM under setting [1] and 5.1 nM under setting [2].

For `CC(NC(=O)NC1CC2(CCC2)C1)c1ccc(Cl)c(OCC(F)(F)F)c1` (racemic) [Example 27, (±)-1-{1-[4-Chloro-3-(2,2,2-trifluoro-ethoxy)-phenyl]-ethyl}-3-spiro[3.3]hept-2-yl-urea], the IC50 is, setting by setting: under setting [1], 169 nM; under setting [2], 278 nM.

As to `N#CC(NC(=O)NC1CC2(CCC2)C1)c1cccc(C(F)(F)F)c1` (racemic) [Example 89, 1-[(±)-Cyano-(3-trifluoromethyl-phenyl)-methyl]-3-spiro[3.3]hept-2-yl-urea], the 50% inhibitory concentration (IC50) by setting is: under setting [1], 74 nM; under setting [2], 75 nM.

For the compound `O=C(NC1CC2(CCC2)C1)NC(CCO)c1cccc(OCC(F)(F)F)c1` (racemic) [Example 88, (±)-1-{3-Hydroxy-1-[3-(2,2,2-trifluoro-ethoxy)-phenyl]-propyl}-3-spiro[3.3]hept-2-yl-urea], the half-maximal inhibitory concentration (IC50) under setting [1] turned out to be 28 nM and the IC50 under setting [2] stood at 45 nM.

Turning to `COc1c(C(C)NC(=O)NC2CC3(CCC3)C2)cccc1C(F)(F)F` (racemic) [Example 21, (±)-1-[1-(2-Methoxy-3-trifluoromethyl-phenyl)-ethyl]-3-spiro[3.3]hept-2-yl-urea], the IC50 under setting [1] is 72 nM and the half-inhibitory concentration (IC50) under setting [2] is 112 nM.

For `COCCOCC(NC(=O)NC1CC2(CCC2)C1)c1cccc(C(F)(F)F)c1` (racemic) [Example 71, (±)-1-[2-(2-Methoxy-ethoxy)-1-(3-trifluoromethyl-phenyl)-ethyl]-3-spiro[3.3]hept-2-yl-urea], the IC50 reads like this: under setting [1], 105 nM; under setting [2], 92 nM.

Source of the values: US20230136562A1, “SPIROUREA DERIVATIVES” (Idorsia Pharmaceuticals Ltd, priority 2020, published 2023).
